Results from ChEMBL document CHEMBL4261492, “Synthesis and in vitro study of novel borneol derivatives as potent inhibitors of the influenza A virus” (Medchemcomm, 2017).

Legend:
[1] = tested on: Influenza A virus; test: microbe, parasite or virus in culture; details: A/Puerto Rico/8/1934(H1N1), MDCK
[2] = tested on: MDCK; test: (§1) Cytotoxicity against MDCK cells after 48 hrs by MTT assay; format: cell-based, Canis lupus familiaris; details: dog, mdck, 48 h
[3] = in vitro; details: dog, MDCK cells, Ratio CC50/EC50
[4] = as §1; format: cell-based, Canis lupus familiaris; details: dog, MDCK cells
[5] = tested on: Influenza A virus; details: mdck

Compound | IC50 [1] | CC50 [2] | selectivity ratio [3] | CC50 at 48 h [4] | IC50 [5]
CCOC(=O)CN1CCOCC1 | 983 µM | > 1730 µM | – | – | –
CC1(C)[C@H]2CC[C@]1(C)[C@H](OC(=O)CN1CCNCC1)C2 | 3.2 µM | – | 16 | 51.6 µM | –
CC1(C)[C@H]2CC[C@]1(C)[C@H](OC(=O)CCN1CCOCC1)C2 | 12.2 µM | 552 µM | 45 | – | –
CN1CCN(CCC(=O)O[C@@H]2C[C@@H]3CC[C@@]2(C)C3(C)C)CC1 | 1.9 µM | 48.1 µM | 25 | – | –
CC1(C)[C@H]2CC[C@]1(C)[C@H](OC(=O)CN1CCOCC1)C2 | 7.1 µM | 580 µM | 82 | – | –
CC1(C)[C@H]2CC[C@]1(C)[C@H](OC(=O)CCN1CCCCC1)C2 | 7.8 µM | 69.6 µM | – | – | –
CC1(C)[C@H]2CC[C@]1(C)[C@H](OC(=O)CCN1CCNCC1)C2 | 6.8 µM | 12.6 µM | 2 | – | –
CCN1CCN(CCC(=O)O[C@@H]2C[C@@H]3CC[C@@]2(C)C3(C)C)CC1 | 8.4 µM | 105 µM | 12 | – | –
CN1CCN(CC(=O)O[C@@H]2C[C@@H]3CC[C@@]2(C)C3(C)C)CC1 | 7.1 µM | – | 14 | 103 µM | –
CCCCN(CCCC)CC(=O)O[C@@H]1C[C@@H]2CC[C@@]1(C)C2(C)C | > 34.1 µM | 69.3 µM | – | – | –
CC1(C)[C@H]2CC[C@]1(C)[C@@H](OC(=O)CCN1CCOCC1)C2 | 7.8 µM | 508 µM | 65 | – | –
CC1CCN(CC(=O)O[C@@H]2C[C@@H]3CC[C@@]2(C)C3(C)C)CC1 | 10.2 µM | 93.9 µM | 9 | – | –
CCCCN(CCCC)CCC(=O)O[C@@H]1C[C@@H]2CC[C@@]1(C)C2(C)C | 7.1 µM | 41.8 µM | 6 | – | –
CC1(C)[C@H]2CC[C@]1(C)[C@H](OC(=O)CCN1CCCC1)C2 | 14.3 µM | 125 µM | 9 | – | –
CC1(C)[C@H]2CC[C@]1(C)[C@H](OC(=O)CN1CCCC1)C2 | 34 µM | 302 µM | 9 | – | –
CC1(C)[C@H]2CC[C@]1(C)[C@@H](OC(=O)CN1CCOCC1)C2 | 73.7 µM | > 534 µM | – | – | –
CCN1CCN(CC(=O)O[C@@H]2C[C@@H]3CC[C@@]2(C)C3(C)C)CC1 | 4.4 µM | – | 23 | 100 µM | –
CCOC(=O)N1CCN(CC(=O)O[C@@H]2C[C@@H]3CC[C@@]2(C)C3(C)C)CC1 | 683 µM | > 852 µM | 1 | – | –
COC(=O)CN1CCOCC1 | > 1890 µM | > 1890 µM | – | – | –
CC1CCN(CCC(=O)O[C@@H]2C[C@@H]3CC[C@@]2(C)C3(C)C)CC1 | 15.3 µM | 56.4 µM | 4 | – | –
CC1(C)[C@H]2CC[C@]1(C)[C@H](OC(=O)CN1CCCCC1)C2 | 15.1 µM | 138 µM | 9 | – | –
CCOC(=O)N1CCN(CCC(=O)O[C@@H]2C[C@@H]3CC[C@@]2(C)C3(C)C)CC1 | > 98.4 µM | 150 µM | 2 | – | –
CC1(C)[C@H]2CC[C@]1(C)[C@@H](O)C2 (stereo in doubt; 1) | – | > 2140 µM | – | – | –
CC1(C)[C@H]2CC[C@]1(C)[C@@H](O)C2 (stereo in doubt; 22) | – | > 974 µM | – | – | > 974 µM
NC12CC3CC(CC(C3)C1)C2 [AMANTADINE] | 64.2 µM | – | 4 | – | –
CCOC(=O)C1=C[C@@H](OC(CC)CC)[C@H](NC(C)=O)[C@@H](N)C1 [OSELTAMIVIR] | – | 160 µM | – | – | –
NC(=O)c1ncn([C@@H]2O[C@H](CO)[C@@H](O)[C@H]2O)n1 [RIBAVIRIN] | 24.6 µM | > 2000 µM | > 81 | – | –
CC(N)C12CC3CC(CC(C3)C1)C2 (configuration not stated) [RIMANTADINE] | 67 µM | – | 5 | – | –
